Results on 34 compounds are retold here after patent US20070054916A1, “Aryl nitrogen-containing bicyclic compounds and methods of use” (Amgen Inc., priority 2004, published 2007).

pIC50: −log10 of the molar value. Some results are limits rather than exact numbers.

For the assay, the system named is production of TNF by monocytes activated with bacterial lipopolysaccharide (LPS). The experiment in a line: Lipopolysaccharide-activated monocyte TNF production assay. Particulars: Homo sapiens, read-out: IC50 values in the monocyte assay (LPS induced TNF release). Type of assay: cell-based. An outline of the steps: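 Adherent human PBMC-derived monocytes (~70%) in DMEM/2% FCS were pre-incubated 60 min with nine two-fold compound dilutions, then stimulated with E. coli K532 LPS (added as 30 ng/ml solution) for 4 h at 37 °C. Supernatant TNF-α was measured by sandwich ELISA. IC50 was taken from a polynomial fit of TNF versus compound concentration.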

For the compound `CN1CC[C@@H](N(C)c2ccc(C(F)(F)F)cc2NC(=O)c2cc(-c3ccc4nc(N)ncc4c3)ccc2F)C1` [Example 419, 5-(2-amino-6-quinazolinyl)-2-fluoro-N-(2-(methyl((3R)-1-methyl-3-pyrrolidinyl)amino)-5-(trifluoromethyl)phenyl)benzamide], the negative-log IC50 (pIC50) – broadly, −log10 of the IC50, conventionally taken in molar units – was at least 4.60.
With `Cc1ccc(C(=O)Nc2cccc(C(F)(F)F)c2)cc1-c1ccc2nc(NCCN3CCOCC3)ncc2c1` [Example 20, 4-methyl-3-(2-((2-(4-morpholinyl)ethyl)amino)-6-quinazolinyl)-N-(3-(trifluoromethyl)phenyl)benzamide] the figure was at least 4.60; with `CCc1ccnc(NC(=O)c2ccc(C)c(-c3ccc4nc(N)ncc4c3)c2)c1` [Example 340, 3-(2-amino-6-quinazolinyl)-N-(4-ethyl-2-pyridinyl)-4-methylbenzamide], at least 4.60.
Regarding `CNc1ncc2cc(-c3cc(C(=O)Nc4cccc(C(F)(F)F)c4C)ccc3C)ccc2n1` [Example 11, 4-methyl-3-(2-(methylamino)-6-quinazolinyl)-N-(2-methyl-3-(trifluoromethyl)phenyl)benzamide], the pIC50 was at least 4.60.
In the case of `Cc1ccc(C(=O)Nc2cccc(C(F)(F)F)c2F)cc1-c1ccc2nc(Nc3ccc(OCCCN4CCCCC4)cc3)ncc2c1` [Example 31, N-(2-fluoro-3-(trifluoromethyl)phenyl)-4-methyl-3-(2-((4-((3-(1-piperidinyl)propyl)oxy)phenyl)amino)-6-quinazotinyl) benzamide], the pIC50 was at least 4.60.
For `CNc1ncc2cc(-c3cc(C(=O)Nc4ccc(NC(=O)NCCN5CCOCC5)c(C(F)(F)F)c4)ccc3C)cnc2n1` [Example 187, 4-methyl-3-(2-(methylamino)pyrido [2,3-d]pyrimidin-6-yl)-N-(4-((((2-(4-morpholinyl)ethyl)amino)carbonyl)amino)-3-(trifluoromethyl)phenyl)benzamide] the value was at least 4.60; for `Cc1ccc(C(=O)Nc2cccc(C(F)(F)F)c2F)cc1-c1ccc2nc(Nc3ccc(N4CCN(C)CC4)cc3)ncc2c1` [Example 30, N-(2-fluoro-3-(trifluoromethyl)phenyl)-4-methyl-3-(2-((4-(4-methyl-1-piperazinyl)phenyl)amino)-6-quinazolinyl) benzamide], at least 4.60; for `Cc1ccc(C(=O)Nc2ccc(C(C)(C)C)c(NC(=O)CN(C)C)c2)cc1-c1ccc2nc(N)ncc2c1` [Example 227, 3-(2-amino-6-quinazolinyl)-N-(4-(1,1-dimethylethyl)-3-((N,N-dimethylglycyl)amino)phenyl)-4-methylbenzamide], at least 4.60.
With `Cc1ccc(C(=O)Nc2cccc(C(F)(F)F)c2C)cc1-c1ccc2nc(N)ncc2c1` [Example 369, 3-(2-amino-6-quinazolinyl)-4-methyl-N-(2-methyl-3-(trifluoromethyl)phenyl)benzamide] the figure was at least 4.60; with `Cc1ccc(C(=O)NCc2ccccn2)cc1-c1ccc2nc(N)ncc2c1` [Example 426, 3-(2-amino-6-quinazolinyl)-4-methyl-N-(2-pyridinylmethyl) benzamide], at least 4.60.
With `Cc1ccc(C(=O)Nc2cc(C(F)(F)F)ccc2F)cc1-c1ccc2nc(N)ncc2c1` [Example 280, 3-(2-amino-6-quinazolinyl)-N-(2-fluoro-5-(trifluoromethyl)phenyl)-4-methylbenzamide] the figure was at least 4.60; with `CNc1ncc2cc(-c3cc(C(=O)Nc4cc(C(C)(C)C)ccc4NC(=O)CN4CCOCC4)ccc3C)cnc2n1` [Example 192], at least 4.60.
Take `Cc1cc(F)c(C(=O)Nc2cccc(C(F)(F)F)c2)cc1-c1ccc2nc(NC3CC3)ncc2c1` [Example 39, 5-(2-(cyclopropylamino)-6-quinazolinyl)-2-fluoro-4-methyl-N-(3-(trifluoromethyl)phenyl)benzamide]: the pIC50 is at least 4.60.
Take `CCN(CC)CCNC(=O)c1cc(NC(=O)c2ccc(C)c(-c3cnc4nc(NC)ncc4c3)c2)cc(C(F)(F)F)c1` [Example 190, N-(3-(((2-(diethylamino)ethyl)amino)carbonyl)-5-(trifluoromethyl)phenyl)-4-methyl-3-(2-(methylamino)pyrido [2,3-d]pyrimidin-6-yl)benzamide]: the pIC50 was at least 4.60.
For `CNc1ncc2cc(-c3cc(C(=O)Nc4cccc(C(F)(F)F)c4)ccc3C)cnc2n1` [Example 167, 4-methyl-3-(2-(methylamino)pyrido[2,3-d]pyrimidin-6-yl)-N-(3-(trifluoromethyl)phenyl)benzamide] the value was at least 4.60; for `Nc1ncc2cc(-c3cc(C(=O)Nc4cccc(C(F)(F)F)c4F)ccc3F)ccc2n1` [Example 136, 3-(2-amino-6-quinazolinyl)-4-fluoro-N-(2-fluoro-3-(trifluoromethyl)phenyl)benzamide], at least 4.60.
Take `COc1ccc(NC(=O)c2ccc(C)c(-c3ccc4nc(N)ncc4c3)c2)cc1C(F)(F)F` [Example 119, 3-(2-amino-6-quinazolinyl)-4-methyl-N-(4-(methyloxy)-3-(trifluoromethyl)phenyl)benzamide]: the negative logarithm of the IC50 (pIC50) is at least 4.60.
For `Cc1ccc(C(=O)Nc2ccc(C(F)(F)F)cc2)cc1-c1ccc2nc(N(C)C)ncc2c1` [Example 319, 3-(2-(dimethylamino)-6-quinazolinyl)-4-methyl-N-(4-(trifluoromethyl)phenyl)benzamide] the value was at least 4.60.
For `CN1CCN(c2ccc(C(F)(F)F)cc2NC(=O)c2cc(-c3ccc4nc(N)ncc4c3)ccc2F)CC1` [Example 421, 5-(2-amino-6-quinazolinyl)-2-fluoro-N-(2-(4-methyl-1-piperazinyl)-5-(trifluoromethyl)phenyl)benzamide] the value was at least 4.60; for `Cc1ccc(NC(=O)c2cc(C(F)(F)F)ccc2C(F)(F)F)cc1-c1ccc2nc(N)ncc2c1` [Example 430, N-(3-(2-amino-6-quinazolinyl)-4-methylphenyl)-2,5-bis(trifluoromethyl)benzamide], at least 4.60; for `Cc1ccc(C(=O)Nc2ncccc2OCCCN2CCCCC2)cc1-c1ccc2nc(N)ncc2c1` [Example 362, 3-(2-amino-6-quinazolinyl)-4-(methyl-N-(3-((3-1-piperidinyl)propyl)oxy)-2-pyridinyl)benzamide], at least 4.60.
For `Cc1ccc(C(=O)Nc2cc(C(C)(C)C)ccc2NC(=O)CN2CCOCC2)cc1-c1ccc2nc(N)ncc2c1` [Example 8] the value was at least 4.60; for `CC(=O)Nc1ccc(C(F)(F)F)cc1NC(=O)c1ccc(C)c(-c2ccc3nc(N)ncc3c2)c1` [Example 234, N-(2-(acetylamino)-5-(trifluoromethyl)phenyl)-3-(2-amino-6-quinazolinyl)-4-methylbenzamide], at least 4.60; for `Cc1cccc(C)c1-c1ccc2nc(NCCN3CCOCC3)ncc2c1` [Example 534, 6-(2,6-dimethylphenyl)-N-(2-morpholinoethyl)quinazolin-2-amine], at least 4.60.
On to `Cc1ccc(C(=O)Nc2cccc3nonc23)cc1-c1ccc2nc(N)ncc2c1` [Example 303, 3-(2-amino-6-quinazolinyl)-N-(2,1,3-benzoxadiazol-4-yl)-4-methylbenzamide], for which the pIC50 was at least 4.60.
With `CNc1ncc2cc(-c3cc(C(=O)Nc4cc(C(F)(F)F)ccc4F)ccc3C)ccc2n1` [Example 1, N-(2-fluoro-5-(trifluoromethyl)phenyl)-4-methyl-3-(2-(methylamino)quinazolin-6-yl)benzamide] the figure was at least 4.60; with `CNc1ncc2cc(-c3cccc(NC(=O)c4cc(C(F)(F)F)ccc4F)c3C)cnc2n1` [Example 223, 2-fluoro-N-(2-methyl-3-(2-(methylamino)pyrido[2,3-d]pyrimidin-6-yl)phenyl)-5-(trifluoromethyl) benzamide], at least 4.60.
As to `CCN(CC)CCCOc1ccc(NC(=O)c2ccc(C)c(-c3ccc4nc(N)ncc4c3)c2)cc1C(F)(F)F` [Example 122, 3-(2-amino-6-quinazolinyl)-N-(4-((3-(diethylamino)propyl)oxy)-3-(trifluoromethyl)phenyl)-4-methylbenzamide], the pIC50 is at least 4.60.
In the case of `Cc1ccc(C(=O)Nc2cccc(C(F)(F)F)c2C)cc1-c1ccc2nc(NCCCN3CCOCC3)ncc2c1` [Example 32, 4-methyl-N-(2-methyl-3-(trifluoromethyl)phenyl)-3-(2-((3-(4-morpholinyl)propyl)amino)-6-quinazolinyl) benzamide], the negative logarithm of the IC50 (pIC50) is at least 4.60.
Take `Cc1ccc(C(=O)Nc2cc(C(F)(F)F)ccc2N2CCOCC2)cc1-c1ccc2nc(N)ncc2c1` [Example 79, 3-(2-amino-6-quinazolinyl)-4-methyl-N-(2-(4-morpholinyl)-5-(trifluoromethyl)phenyl)benzamide]: the pIC50 was at least 4.60.
As for `COc1ccc(C(C)(C)C)cc1NC(=O)c1ccc(Cl)c(-c2ccc3nc(N)ncc3c2)c1` [Example 139, 3-(2-amino-6-quinazolinyl)-4-chloro-N-(5-(1,1-dimethylethyl)-2-(methyloxy)phenyl)benzamide], the pIC50 is at least 4.60.
`CNc1ncc2cc(-c3cc(C(=O)Nc4ccc(Cl)c(C(F)(F)F)c4)ccc3C)ccc2n1` [Example 12, N-(4-chloro-3-(trifluoromethyl)phenyl)-4-methyl-3-(2-(methylamino)-6-quinazolinyl)benzamide]: the negative-log IC50 (pIC50) was at least 4.60.
For `Cc1ccc(C(=O)Nc2cc(C(F)(F)F)ccc2N2CCS(=O)(=O)CC2)cc1-c1ccc2nc(N)ncc2c1` [Example 228, 3-(2-amino-6-quinazolinyl)-N-(2-(1,1-dioxido-4-thiomorpholinyl)-5-(trifluoromethyl)phenyl)-4-methylbenzamide] the value was at least 4.60; for `Cc1c(NC(=O)c2ccc(Cl)c(-c3ccc4nc(N)ncc4c3)c2)cccc1C(F)(F)F` [Example 141, 3-(2-amino-6-quinazolinyl)-4-chloro-N-(2-methyl-3-(trifluoromethyl)phenyl)benzamide], at least 4.60.
